These results are taken from US7897389B2, “Direct differentiation method for making cardiomyocytes from human embryonic stem cells” (Geron Corporation, priority 2008, dated 2011).

The test system of data set [1] is Embryoid bodies from the H1 or H9 line. Here is the method: Embryoid bodies from the H1 or H9 line were treated at differentiation day 1-4, 4-6 or 6-8 with 5-aza-deoxy-cytidine, a cytosine analog that affects DNA methylation. Cells were harvested at day 15, and analyzed for cardiac MHC by real-time RT-PCR.
Other reagents examined for an ability to induce cardiomyocyte differentiation included dimethyl sulfoxide (DMSO) and all-trans retinoic acid (RA).

In data set [2] the test system is hES-derived cardiomyocytes. In words: Chronotropic effects of cardioactive drugs on beating hES-derived cardiomyocytes. As to conditions: for chronotropic effect on beating rate: FIG. 2 Panels B-E. In kind it is cell-based, human. Here is the method:
The function of hES-derived cardiomyocytes was tested by determining whether the cardiomyocytes respond appropriately to the chronotropic effects of cardioactive drugs.
When cells were treated with 10^−5 M diltiazem, 100% of the beating areas stopped contraction. […] Thus, the hES cell derived cells respond to cardioactive drugs in a manner appropriate for cells of the cardiomyocyte lineage.

Each structure is given as a SMILES string.

On to `CC1=C(/C=C/C(C)=C/C=C/C(C)=C/C(=O)O)C(C)(C)CCC1` [RA, all-trans retinoic acid], for which the “toxicity to the cells” value in data set [1] is given as “toxic”. For the same compound, the “beating cells compared with untreated cultures” value in data set [1] (10^−9 to 10^−5 M, days 4-8, 8-15, or 4-15) is given as “no increase in beating cells”.

As to `COc1ccc([C@@H]2Sc3ccccc3N(CCN(C)C)C(=O)[C@@H]2OC(C)=O)cc1` [diltiazem], the beating rate result in data set [2] (FIG. 2 Panel A, concentration-dependent) is “inhibited”.

As to `CNC[C@H](O)c1cccc(O)c1` [phenylephrine], in data set [2], the “chronotropic effect on beating rate” value is given as “positive chronotropic effects”.

Consider `C[S+](C)[O-]` [DMSO, dimethyl sulfoxide], for which, in data set [1] (0.5% from days 0-4), the “beating areas vs non-treated cultures” value is “fewer beating areas”. Moreover, in data set [1] (0.8% or 1%), the beating cells entry is given as “absent”. Moreover, the “α-MHC expression compared with untreated cultures” value in data set [1] (DMSO treatment) is recorded as “significant reduction”.

With `Nc1ncn([C@H]2C[C@H](O)[C@@H](CO)O2)c(=O)n1` [5-aza-deoxy-cytidine], in data set [1] (1 to 10 μM at day 6-8), the “proportion of beating areas in the culture” value is recorded as “increased”. For the same compound, the “expression of cardiac α-MHC” value in data set [1] (1 to 10 μM at day 6-8, harvested day 15, real-time RT-PCR) is recorded as “significantly increased”.

As to `CC(C)NCC(O)c1ccc(O)c(O)c1` (stereo not shown) [isoprenaline], the “chronotropic effect on beating rate” value in data set [2] was “positive chronotropic effects”.
